The source of these data is patent US20100311661A1, “USE OF COMPOUNDS DERIVED FROM CYCLOHEXIMIDE FOR THE TREATMENT OR PREVENTION OF, IN PARTICULAR, ISCHAEMIAS AND CARDIOPATHIES” (Max Planck Gesellschaft Zur Forderung Der Wissenschaften …, priority 2007, published 2010).

One assay deals with liver cells of rats. The following applies: cited from earlier work.
In the next assay the test system is retinal ganglion cells. The following applies: in vivo; cited from earlier work.
In the next assay the test system is brain lesions. The following applies: photothrombotic in vivo model in rats; cited from earlier work.
The next assay relates to adult cardiomyocytes. The assay can be described thus: Adult cardiomyocytes under hypoxia and subsequent reoxygenation; apoptosis by Guava ViaCount assay. The following applies: 18 hours hypoxia, 24 hours normoxic; DM-CHX greater than 1 μM; p<0.05.
For assay [1], the system named is Hearts of 9-week-old male rats. On the set-up: species or system rats (Sprague-Dawley).

Molecules are shown by their SMILES.

Consider `CC1CC(C)C(=O)C(C(O)CC2CC(=O)NC(=O)C2)C1` (centres unmarked) [CHX, 4-[2-(3,5-dimethyl-2-oxocyclohexyl)-2-hydroxy-ethyl]-2,6-piperidindione], for which, in the assay with liver cells of rats, the “protection against cell death” value was “protective property of CHX against cell death has also been demonstrated”. In the assay with retinal ganglion cells, the “cell death caused by axotomy” value is recorded as “inhibits cell death caused by axotomy”. Further, in the assay with brain lesions, the “brain lesions triggered by radiation” value is given as “reduces brain lesions”.
Turning to `C[C@@H]1C[C@@H]([C@H](O)CC2CC(=O)N(CC(=O)N(C)C)C(=O)C2)C(=O)[C@@H](C)C1` [DM-CHX], the influence on apoptosis result in the assay with adult cardiomyocytes is “statistically significant influence”. The “size of the infarct, qualitative (TTC colouring, visual)” value in assay [1] is reported as “serious difference in colouring”.
